≈ marks a conversion by molar mass, not a printed value. Calls of active or inactive are those of the source. No cut-off for these calls is given here.
Legend:
Assay type in all cases: functional
[1] = system: Candida maltosa; experiment: Antifungal activity against Candida maltosa SBUG 700 assessed as diameter of the inhibition zone at 1 uM/disk by disk diffusion method
[2] = system: Bacillus subtilis; experiment: Antibacterial activity against Bacillus subtilis ATCC 6051 by dilution assay
[3] = system: Escherichia coli; experiment: Antibacterial activity against Escherichia coli ATCC 11229 assessed as diameter of the inhibition zone at 1 uM/disk after 4 hrs by disk diffusion method
[4] = system: Staphylococcus aureus; experiment: Antibacterial activity against Staphylococcus aureus ATCC 6538 by dilution assay
[5] = system: Staphylococcus aureus; experiment: Antibacterial activity against Staphylococcus aureus ATCC 6538 assessed as diameter of the inhibition zone at 1 uM/disk after 4 hrs by disk diffusion method; conditions: for zone of inhibition at 1 µM: ATCC 6538, 4 h, read-out: IZ
[6] = system: Bacillus subtilis; experiment: Antibacterial activity against Bacillus subtilis ATCC 6051 assessed as diameter of the inhibition zone at 1 uM/disk after 4 hrs by disk diffusion method; conditions: for zone of inhibition at 1 µM: ATCC 6051, 4 h, read-out: IZ

Row | Compound | Activity [1] | MIC [2] [µM] | Activity [3] | MIC [4] [µM] | zone of inhibition at 1 µM [5] [mm] | zone of inhibition at 1 µM [6] [mm] | Activity [5] | Activity [6] | zone of inhibition at 1 µM ([1]; read-out: IZ) [mm] | inhibition zone (IZ) [1] [mm] | zone of inhibition at 1 µM ([3]; ATCC 11229, 4 h, read-out: IZ) [mm]
1 | Cc1ccc(Sc2c(O)cc(S(=O)(=O)c3ccc(C)cc3)nc2C)cc1 | inactive | 160 (≈ 61.7 µg/mL) | inactive | 320 (≈ 123 µg/mL) | 8 | 10 | – | – | – | – | –
2 | CCOc1nc(S(=O)(=O)c2ccccc2)cc(O)c1F | inactive | 1680 (≈ 499 µg/mL) | inactive | 3360 (≈ 999 µg/mL) | 12 | 11 | – | – | – | – | –
3 | COCc1cc(O)cc(S(=O)(=O)c2ccc(C)cc2)n1 | inactive | – | inactive | – | – | – | inactive | inactive | – | – | –
4 | Cc1ccc(S(=O)(=O)c2cc(O)c(Sc3ccccc3)c(C)n2)cc1 | inactive | 340 (≈ 126 µg/mL) | inactive | 670 (≈ 249 µg/mL) | – | 10 | inactive | – | – | – | –
5 | Cc1ccc(Oc2c(O)cc(S(=O)(=O)c3ccc(C)cc3)nc2C)cc1 | inactive | – | inactive | – | 8 | 7 | – | – | – | – | –
6 | CC(C)Oc1cc(O)cc(S(=O)(=O)c2ccccc2)n1 | inactive | – | inactive | – | – | – | inactive | inactive | – | – | –
7 | CCOc1cc(O)cc(S(=O)(=O)c2ccccc2)n1 | inactive | – | inactive | – | – | – | inactive | inactive | – | – | –
8 | Cc1nc(S(=O)(=O)c2ccccc2)cc(O)c1Sc1ccccc1 | inactive | – | inactive | – | 9 | 10 | – | – | – | – | –
9 | CCOc1nc(S(=O)(=O)c2ccccc2)cc(O)c1Cl | inactive | 1590 (≈ 499 µg/mL) | inactive | 1590 (≈ 499 µg/mL) | 12 | 11 | – | – | – | – | –
10 | Cc1ccc(S(=O)(=O)c2cc(O)cc(C)n2)cc1 | inactive | – | inactive | – | – | – | inactive | inactive | – | – | –
11 | COc1cc(O)cc(S(=O)(=O)c2ccc(C)cc2)n1 | inactive | – | inactive | – | 10 | – | – | inactive | – | – | –
12 | CCOc1nc(S(=O)(=O)c2ccc(C)cc2)cc(O)c1Cl | – | 1520 (≈ 498 µg/mL) | inactive | 1530 (≈ 502 µg/mL) | 13 | 10 | – | – | 9 | – | –
13 | NYSTATIN | – | – | – | – | – | – | – | – | – | 28 | –
14 | CCOc1nc(S(=O)(=O)c2ccccc2)cc(O)c1Oc1cc(C)cc(C)c1 | inactive | – | inactive | – | – | – | inactive | inactive | – | – | –
15 | CC1(C)S[C@@H]2[C@H](NC(=O)[C@H](N)c3ccccc3)C(=O)N2[C@H]1C(=O)O [AMPICILLIN] | – | 11 (≈ 3.84 µg/mL) | – | 3 (≈ 1.05 µg/mL) | 27 | 25 | – | – | – | – | 19
16 | COc1nc(S(=O)(=O)c2ccccc2)cc(O)c1Sc1ccccc1 | inactive | – | inactive | – | – | 10 | inactive | – | – | – | –
17 | CCc1c(O)cc(S(=O)(=O)c2ccccc2)nc1OC | inactive | – | inactive | – | – | – | inactive | inactive | – | – | –
18 | CCOc1nc(S(=O)(=O)c2ccc(C)cc2)cc(O)c1F | inactive | – | inactive | – | – | 11 | inactive | – | – | – | –
19 | COc1cc(O)cc(S(=O)(=O)c2ccccc2)n1 | inactive | – | inactive | – | – | – | inactive | inactive | – | – | –
20 | COCCOc1cc(O)cc(S(=O)(=O)c2ccc(C)cc2)n1 | inactive | – | inactive | – | – | – | inactive | inactive | – | – | –
21 | Cc1cccc(Sc2c(O)cc(S(=O)(=O)c3ccccc3)nc2C)c1 | inactive | 330 (≈ 123 µg/mL) | inactive | 670 (≈ 249 µg/mL) | 13 | 10 | – | – | – | – | –
22 | CCOc1nc(S(=O)(=O)c2ccc(C)cc2)cc(O)c1Oc1cc(C)cc(C)c1 | inactive | – | inactive | – | 8 | – | – | inactive | – | – | –
23 | Cc1ccc(S(=O)(=O)c2cc(O)c(Oc3cccc(C)c3)c(C)n2)cc1 | inactive | – | inactive | – | – | – | inactive | inactive | – | – | –
24 | CCOc1cc(O)cc(S(=O)(=O)c2ccc(C)cc2)n1 | inactive | – | inactive | – | – | – | inactive | inactive | – | – | –
